According to US9808535B2, “Conjugates for protection from nephrotoxic active substances” (Merck Patent GmbH, priority 2013, dated 2017):
Residues, ends and D or L forms follow the SMILES beside them. ξ: configuration not given here. *: point of attachment. Lipoyl(6ξ) = O=C(CCCCC1CCSS1)*

Key:
[1] = infusion, 740 to 900 mg/m^2 of body surface area; cited from earlier work
[2] = mouse, in vivo, iv

Row | Structure (SMILES) | arterial hypotension as severe side effect [1] | kidney specificity [2]
1 | NCCCNCCSP(=O)(O)O [Amifostin] | In over half of patients | –
2 | NCCCCC(NC(=O)C(CCC(=O)O)NC(=O)C(CCC(=O)O)NC(=O)C(CCC(=O)O)NC(=O)C(CCCCNC(=O)CCCCC1CCSS1)NC(=O)C(CCCCN)NC(=O)C(CCCCN)NC(=O)C(CCC(=O)O)NC(=O)C(CCC(=O)O)NC(=O)C(CCC(=O)O)NC(=O)C(CCCCNC(=O)CCCCC1CCSS1)NC(=O)C(CCCCN)NC(=O)C(CCCCN)NC(=O)C(CCC(=O)O)NC(=O)C(CCC(=O)O)NC(=O)C(CCC(=O)O)NC(=O)C(CCCCNC(=O)CCCCC1CCSS1)NC(=O)C(CCCCN)NC(=O)C(CCCCN)NC(=O)C(N)Cc1ccc(O)cc1)C(N)=O (centres unmarked) [y(KKKe(lipoic acid)EEE)3K] (H-YKKK(Lipoyl(6ξ))EEEKKK(Lipoyl(6ξ))EEEKKK(Lipoyl(6ξ))EEEK-NH2; configuration not given here) | – | high kidney specificity
